Columns and labels:
Ba/F3 cells = assay: Ba/F3 cell proliferation assay (IL-3, MTS); format: cell-based, murine
Method: To test the effects of the active compounds on IL-3-induced cellular response, Ba/F3, an IL-3 dependent murine pro-B lymphoma cell line, was used for the assay. Ba/F3 cells were seeded into 96-well plates (2×10^4 cells/well) in the RPMI-1640 medium supplemented with 10% fetal bovine serum (FBS), recombinant mouse IL-3 (1 ng/mL), and test compounds ([…]). Three days later, cell number was determined using the MTS cell proliferation kit (Promega Life Science, Madison, Wis.).
To test the effects of the active compounds on SHP-2-mediated cellular proliferation, Ba/F3, an IL-3 dependent hematopoietic cell line, mouse embryonic fibroblasts (MEFs), and H661 lung cancer cell line with SHP-2 activating mutation N58S were used for the assays. Cells were seeded into 96-well plates (2×10^4 cells/well) in the RPMI-1640 (for Ba/F3 cells) or DMEM (for MEFs and H661 cells) medium supplemented with 10% fetal bovine serum (FBS) and test compounds at various concentrations. For the Ba/F3 cell assay, recombinant mouse IL-3 (1 ng/mL) was included in the culture medium. Two days later, cell number was determined using the MTS cell proliferation kit (Promega Life Science, Madison, Wis.).

GST-SHP-1 = biological target: T1, GST-SHP-1 (Homo sapiens, UniProt P29350); assay: in vitro phosphatase assay, SHP-1; format: biochemical; details: for functional specificity SHP-2 vs. SHP-1: phosphatase assays at the indicated concentrations
T1 construct: purchased Biomol International, L.P. (Plymouth Meeting, Pa.)
Description: (§1) Candidate compounds were screened using the in vitro protein tyrosine phosphatase (PTP) assay kit (Sigma, St. Lois, Mo.). SHP-2 PTP domain GST fusion protein purified in house was used as the enzyme and a phospho-peptide corresponding to the surrounding sequence of pTyr^1146 in the insulin receptor (Thr-Arg-Asp-Ile-Tyr[PO3H2]-Glu-Thr-Asp-Tyr-Tyr) were used as the substrate. The assay determines free phosphate generated by dephosphorylation of the PTP substrate using the Malachite Green reagent. Briefly, 0.5 μg of GST-SHP-2 PTP was incubated in 40 μL assay buffer (25 mM Tris-HCl, PH7.4, 50 mM NaCl, 5 mM DTT, and 2.5 mM EDTA) with test compounds at various concentrations or DMSO at room temperature for 30 min. The PTP substrate was then added to a final concentration of 0.2 mM. The system was incubated at 30° C. for 30 min. Finally, 50 μl of Malachite Green solution was added and OD620 was measured after 5 min. In the phosphatase assays for SHP-1, CD45, TC-PTP, PTP-MEG2 (PTPN9), and LAR (PTPRF), procedures were similar, with the exception that GST-SHP-1, GST-CD45 cytoplasmic domain, GST-TC-PTP, GST-PTP-MEG2 PTP domain, and GST-LAR PTP domain purchased from Biomol International, L.P. (Plymouth Meeting, Pa.) were used instead as the enzymes.

GST-TC-PTP = biological target: T2, GST-TC-PTP (Homo sapiens, UniProt P17706); assay: in vitro phosphatase assay, TC-PTP; format: biochemical; details: for inhibition of TC-PTP: FIG. 4
T2 construct: purchased Biomol International, L.P. (Plymouth Meeting, Pa.)
T2 sequence (P17706 1-415): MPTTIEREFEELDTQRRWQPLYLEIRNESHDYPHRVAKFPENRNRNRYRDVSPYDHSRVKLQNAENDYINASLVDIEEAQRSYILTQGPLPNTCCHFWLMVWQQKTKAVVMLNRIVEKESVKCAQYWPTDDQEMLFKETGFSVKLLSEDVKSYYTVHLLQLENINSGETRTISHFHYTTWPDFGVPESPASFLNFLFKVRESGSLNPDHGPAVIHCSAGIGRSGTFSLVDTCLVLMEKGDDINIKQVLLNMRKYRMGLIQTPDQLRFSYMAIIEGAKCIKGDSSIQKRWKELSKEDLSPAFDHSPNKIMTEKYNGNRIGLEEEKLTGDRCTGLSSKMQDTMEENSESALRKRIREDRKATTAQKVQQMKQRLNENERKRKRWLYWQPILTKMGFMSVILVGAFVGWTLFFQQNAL
Method: as §1, with “SHP-2 PTP domain GST fusion protein purified in house was used as the enzyme and a phospho-peptide corresponding to the surrounding sequence of pTyr^1146 in the insulin receptor (Thr-Arg-Asp-Ile-Tyr[PO3H2]-Glu-Thr-Asp-Tyr-Tyr) were used as the substrate.” left out

[1] = biological target: T3, SHP-2 PTP domain GST fusion protein (Homo sapiens, UniProt Q06124); assay: in vitro protein tyrosine phosphatase assay, SHP-2 (Malachite Green); format: biochemical; set-up: SHP-2 PTP domain GST fusion protein purified in house was used as the enzyme; made in house; details: for inhibition at 100 µM: compound at 100 μM, read-out: inhibition of SHP-2 enzymatic activity
T3 sequence (Q06124 247-517 limits assumed): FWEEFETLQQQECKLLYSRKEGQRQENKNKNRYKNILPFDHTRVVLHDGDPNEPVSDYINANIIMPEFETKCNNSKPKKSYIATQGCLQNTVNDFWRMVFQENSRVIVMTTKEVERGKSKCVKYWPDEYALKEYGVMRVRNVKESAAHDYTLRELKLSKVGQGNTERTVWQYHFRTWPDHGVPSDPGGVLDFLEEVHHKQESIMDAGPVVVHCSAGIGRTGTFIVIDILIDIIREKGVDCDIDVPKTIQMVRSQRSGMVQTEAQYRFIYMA
Description: as §1
Candidate compounds identified by CADD were screened by the in vitro tyrosine phosphatase assay as described in the Experimental Section. The GST-SHP-2 PTP domain fusion protein was incubated with the compounds at room temperature for 30 min before the phospho-peptide substrate was added to the assay systems, allowing compounds to bind to target sites in SHP-2. Each test compound was dissolved in DMSO. Initial concentration of the test compounds was 100 μM. In the experimental assay, DMSO was included as the negative control and sodium orthovanadate (100 μM), a general non-specific tyrosine phosphatase inhibitor, was used as the positive control. From the 165 commercially available compounds tested, we identified 9 compounds that inhibit SHP-2 catalytic activity with various efficiencies (FIG. 3A). […] The inhibitory effects of the compounds were dose-dependent.

T1 sequence (P29350 whole entry): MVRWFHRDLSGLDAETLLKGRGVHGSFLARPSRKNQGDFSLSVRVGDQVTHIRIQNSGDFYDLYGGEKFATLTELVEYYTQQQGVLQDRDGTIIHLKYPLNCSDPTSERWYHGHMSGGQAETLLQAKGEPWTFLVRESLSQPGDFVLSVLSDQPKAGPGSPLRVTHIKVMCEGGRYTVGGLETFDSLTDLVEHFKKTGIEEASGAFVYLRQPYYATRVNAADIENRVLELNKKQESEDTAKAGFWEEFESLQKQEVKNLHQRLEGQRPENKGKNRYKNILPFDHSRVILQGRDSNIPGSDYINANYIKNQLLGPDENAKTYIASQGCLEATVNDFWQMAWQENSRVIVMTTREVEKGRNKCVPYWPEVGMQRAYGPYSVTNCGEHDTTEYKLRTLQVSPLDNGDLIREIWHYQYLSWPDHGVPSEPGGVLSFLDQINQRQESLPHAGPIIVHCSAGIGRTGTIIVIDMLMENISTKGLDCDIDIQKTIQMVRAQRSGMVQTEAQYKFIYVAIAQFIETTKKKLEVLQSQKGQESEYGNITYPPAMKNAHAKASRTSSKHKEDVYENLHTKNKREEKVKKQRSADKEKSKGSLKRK

| functional specificity SHP-2 vs. SHP-1 (GST-SHP-1) | inhibition of TC-PTP (GST-TC-PTP) | inhibition at 100 µM [1] | IC50 (GST-SHP-1; read-out: IC50 SHP1) | IC50 (GST-TC-PTP) | IC50 ([1]; read-out: IC50 SHP2) | SMILES | IL-3-stimulated cell growth (Ba/F3 cells; 100 or 200 μM, IL-3 1 ng/mL, 72 hours) | acute cytotoxicity (Ba/F3 cells) | SHP-2 mediated proliferative response to IL-3 (Ba/F3 cells; IL-3 1 ng/mL, 48 hours) | selectivity for SHP-2 compared to other PTPases ([1]; Table 1 and FIG. 10) |
| --- | --- | --- | --- | --- | --- | --- | --- | --- | --- | --- |
| selectively inhibited SHP-2 vs. SHP-1 | slight inhibition | 55% |  |  |  | NS(=O)(=O)c1ccc(CCNC(=O)c2ccc(Cn3c(=S)[nH]c4ccc(Br)cc4c3=O)cc2)cc1 [#216] | greatly decreased |  |  |  |
| selectively inhibited SHP-2 vs. SHP-1 | slight inhibition | 50% |  |  |  | Cc1cc(C)c2c(c1)[nH]c1nnc(SCC(=O)NCc3cccs3)nc12 [#220] |  | modest acute cytotoxicity |  |  |

| SMILES | functional specificity SHP-2 vs. SHP-1 (GST-SHP-1) | inhibition of TC-PTP (GST-TC-PTP) | inhibition at 100 µM [1] | IC50 (GST-SHP-1; read-out: IC50 SHP1) | IC50 (GST-TC-PTP) | IC50 ([1]; read-out: IC50 SHP2) | IL-3-stimulated cell growth (Ba/F3 cells; 100 or 200 μM, IL-3 1 ng/mL, 72 hours) | acute cytotoxicity (Ba/F3 cells) | SHP-2 mediated proliferative response to IL-3 (Ba/F3 cells; IL-3 1 ng/mL, 48 hours) | selectivity for SHP-2 compared to other PTPases ([1]; Table 1 and FIG. 10) |
| --- | --- | --- | --- | --- | --- | --- | --- | --- | --- | --- |
| Cc1cc(C)c2[nH]c3nc(SCC(=O)Nc4cccc5ccccc45)nnc3c2c1 [#324] | high functional specificity for SHP-2 over SHP-1 |  |  | 37.7 µM | 39.9 µM | 13.9 µM |  |  | inhibit | selectively inhibits SHP-2 compared to other PTPases |
